Measured values as given in ChEMBL document CHEMBL1201862, “PubChem BioAssay data set” (2004).
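Five concentrations, 48 hours, 96-well plates. GI50 = concentration required for 50% inhibition of growth.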 Active and inactive are the calls of the source. Cut-off read from the data, not from the text of the source: active = GI50 up to about 1.1 µM and inactive = higher.

Experiments:
Assay in all cases: NCI anticancer screen, dose series, 48 h
SNB-19 = system: SNB-19
SNB-75 = system: SNB-75
NCI-H23 = system: NCI-H23
SK-MEL-28 = system: SK-MEL-28
SR = system: SR
Malme-3M = system: Malme-3M
LOX IMVI = system: LOX IMVI
TK-10 = system: TK-10
NCI-H460 = system: NCI-H460
MOLT-4 = system: MOLT-4
UO-31 = system: UO-31
UACC-62 = system: UACC-62
SF-539 = system: SF-539
OVCAR-5 = system: OVCAR-5
CAKI-1 = system: CAKI-1
HCC 2998 = system: HCC 2998
HOP-92 = system: HOP-92

Measured: GI50

CC(=O)O[C@]12CCCCCC1C1(O)C(O)CCC[C@H]12 (stereo not given in full)
inactive: SNB-19 > 100 µM | SNB-75 > 100 µM | NCI-H23 > 100 µM | SK-MEL-28 > 100 µM | SR > 100 µM | Malme-3M > 100 µM | LOX IMVI > 100 µM | TK-10 > 100 µM | NCI-H460 > 100 µM | MOLT-4 > 100 µM | UO-31 > 100 µM | UACC-62 > 100 µM

CC1(c2ccccc2Cl)C(C#N)C(=O)NC(=O)C1C#N (stereo not given)
inactive: SNB-19 28.7 µM | SNB-75 24.8 µM | NCI-H23 33.3 µM | SK-MEL-28 37.8 µM | SF-539 34.8 µM | Malme-3M 35.5 µM | LOX IMVI 40.1 µM | TK-10 > 100 µM | OVCAR-5 91 µM | NCI-H460 36.6 µM | CAKI-1 > 100 µM | HCC 2998 41.3 µM | MOLT-4 31.2 µM | UO-31 27.5 µM | HOP-92 23.5 µM | UACC-62 33.6 µM

CC(=O)O[C@]12CCCCC1C1(O)C(O)CCCCC12 (stereo not given in full)
inactive: SNB-19 > 100 µM | SNB-75 > 100 µM | NCI-H23 > 100 µM | SK-MEL-28 > 100 µM | SR > 100 µM | Malme-3M > 100 µM | LOX IMVI > 100 µM | TK-10 > 100 µM | NCI-H460 > 100 µM | MOLT-4 > 100 µM | UO-31 > 100 µM | UACC-62 > 100 µM

CSc1snc2sc3c(Cl)nnnc3c12
inactive: SNB-19 15.8 µM | SNB-75 11.5 µM | NCI-H23 18.3 µM | SK-MEL-28 10.6 µM | SF-539 17.8 µM | Malme-3M 11.4 µM | LOX IMVI 3.12 µM | TK-10 16.9 µM | OVCAR-5 17.2 µM | NCI-H460 15.8 µM | CAKI-1 4.42 µM | HCC 2998 6.01 µM | MOLT-4 2.98 µM | UO-31 13 µM | UACC-62 14.2 µM

O=C(COc1ccc2c(=O)cc(-c3ccccc3)oc2c1)N1CCN(c2ccccc2)CC1
inactive: SNB-19 36.6 µM | SNB-75 27.5 µM | NCI-H23 46.1 µM | SK-MEL-28 49.8 µM | SF-539 71.1 µM | Malme-3M 51.6 µM | LOX IMVI 57.3 µM | TK-10 44.6 µM | OVCAR-5 34.6 µM | NCI-H460 31.8 µM | HCC 2998 33.1 µM | MOLT-4 11.1 µM | UO-31 19.8 µM | UACC-62 57.9 µM

Cc1cc(C)cc(NC(=O)CCC(=O)C2CCC/C2=N\NC(=O)C(=O)NN)c1 (stereo not given)
inactive: SNB-19 > 100 µM | SNB-75 > 100 µM | NCI-H23 > 100 µM | SK-MEL-28 > 100 µM | SF-539 > 100 µM | Malme-3M > 100 µM | LOX IMVI > 100 µM | TK-10 > 100 µM | OVCAR-5 > 100 µM | NCI-H460 > 100 µM | CAKI-1 > 100 µM | HCC 2998 > 100 µM | MOLT-4 > 100 µM | UO-31 > 100 µM | UACC-62 > 100 µM

N#CC1=C(O)NC(O)=C(C#N)C1c1ccc(C2C(C#N)=C(O)NC(O)=C2C#N)cc1
inactive: SNB-19 > 100 µM | SNB-75 > 100 µM | NCI-H23 > 100 µM | SK-MEL-28 > 100 µM | SF-539 > 100 µM | Malme-3M > 100 µM | LOX IMVI 35.2 µM | TK-10 > 100 µM | NCI-H460 46.5 µM | CAKI-1 > 100 µM | HCC 2998 > 100 µM | MOLT-4 94.6 µM | UO-31 > 100 µM | UACC-62 > 100 µM

O=C1OCC(C(=O)c2cccc(O)c2)C1=O (stereo not given)
inactive: SNB-19 > 100 µM | SNB-75 > 100 µM | NCI-H23 > 100 µM | SK-MEL-28 > 100 µM | SF-539 > 100 µM | Malme-3M > 100 µM | LOX IMVI > 100 µM | TK-10 > 100 µM | OVCAR-5 > 100 µM | NCI-H460 > 100 µM | CAKI-1 > 100 µM | HCC 2998 > 100 µM | UO-31 > 100 µM | HOP-92 > 100 µM | UACC-62 > 100 µM

C#Cc1cccc(NC(=O)/C=C\C(=O)O)c1
inactive: SNB-19 > 100 µM | SNB-75 > 100 µM | NCI-H23 > 100 µM | SK-MEL-28 > 100 µM | Malme-3M > 100 µM | TK-10 > 100 µM | OVCAR-5 > 100 µM | NCI-H460 > 100 µM | CAKI-1 > 100 µM | MOLT-4 > 100 µM | UO-31 > 100 µM | HOP-92 > 100 µM | UACC-62 > 100 µM

O=S(=O)(O)C(O)/C=C/c1ccccc1 (stereo not given)
inactive: SNB-19 > 100 µM | SNB-75 > 100 µM | NCI-H23 > 100 µM | SK-MEL-28 > 100 µM | SR 26.6 µM | Malme-3M > 100 µM | LOX IMVI 49.3 µM | TK-10 > 100 µM | OVCAR-5 > 100 µM | CAKI-1 > 100 µM | HCC 2998 > 100 µM | MOLT-4 > 100 µM | UO-31 > 100 µM | UACC-62 > 100 µM
